Measured values published in patent publication US10701934B2, “Synergistic weed control from applications of penoxsulam and benzobicyclon or clomazone and benzobicyclon” (Dow AgroSciences LLC, priority 2013, dated 2020).

Experiments:
[1] = tested on: Purple Nutsedge, Cyperus rotundus (CYPRO); test: In-water application in transplanted rice in the greenhouse, visual weed control of CYPRO; format: in vivo; conditions: 22 days after application, 0-100 scale
Source text: Weed seeds or nutlets of the desired test plant species were planted in puddled soil (mud) prepared by mixing a shredded, non-sterilized mineral soil (50.5 percent silt, 25.5 percent clay, and 24 percent sand, with a pH of about 7.6 and an organic matter content of about 2.9 percent) and water at a 1:1 volumetric ratio. The prepared mud was dispensed in 365 milliliter (mL) aliquots into 16-ounce (oz.) non-perforated plastic pots with a surface area of 86.59 square centimeters (cm^2) leaving a headspace of 3 centimeters (cm) in each pot. Rice seeds were planted in Sun Gro MetroMix® 306 planting mixture, which typically has a pH of 6.0 to 6.8 and an organic matter content of about 30 percent, in plastic plug trays. Seedlings at the second or third leaf stage of growth were transplanted into 860 mL of mud contained in 32-oz. non-perforated plastic pots with a surface area of 86.59 cm^2 4 days prior to herbicide application. The paddy was created by filling the headspace of the pots with 2.5 to 3 cm of water. When required to ensure good germination and healthy plants, a fungicide treatment and/or other chemical or physical treatment was applied. The plants were grown for 4-22 days in a greenhouse with an approximate 14 hour (h) photoperiod which was maintained at about 29° C. during the day and about 26° C. during the night. […] Treatment requirements for each compound or herbicidal component were calculated based upon the rates being tested, the concentration of active ingredient or acid equivalent in the formulation, an application volume of 2 mL per component per pot, and an application area of 86.59 cm^2 per pot. For formulated compounds, a measured amount was placed in an individual 100 or 200 mL glass vial and was dissolved in a volume of 1.25% volume per volume (v/v) Agri-Dex® crop oil concentrate to obtain application solutions. […] The results measured at 22 days following application of the compositions are provided in Table 1 (Penoxsulam and Benzobicyclon) and Table 2 (Clomazone and Benzobicyclon).

[2] = tested on: Early Watergrass, Echinochloa oryzoides (ECHOR); test: In-water application in transplanted rice in the greenhouse, visual weed control of ECHOR; format: in vivo; conditions: 22 days after application, 0-100 scale
Source text: Weed seeds or nutlets of the desired test plant species were planted in puddled soil (mud) prepared by mixing a shredded, non-sterilized mineral soil (50.5 percent silt, 25.5 percent clay, and 24 percent sand, with a pH of about 7.6 and an organic matter content of about 2.9 percent) and water at a 1:1 volumetric ratio. The prepared mud was dispensed in 365 milliliter (mL) aliquots into 16-ounce (oz.) non-perforated plastic pots with a surface area of 86.59 square centimeters (cm^2) leaving a headspace of 3 centimeters (cm) in each pot. Rice seeds were planted in Sun Gro MetroMix® 306 planting mixture, which typically has a pH of 6.0 to 6.8 and an organic matter content of about 30 percent, in plastic plug trays. Seedlings at the second or third leaf stage of growth were transplanted into 860 mL of mud contained in 32-oz. non-perforated plastic pots with a surface area of 86.59 cm^2 4 days prior to herbicide application. The paddy was created by filling the headspace of the pots with 2.5 to 3 cm of water. When required to ensure good germination and healthy plants, a fungicide treatment and/or other chemical or physical treatment was applied. The plants were grown for 4-22 days in a greenhouse with an approximate 14 hour (h) photoperiod which was maintained at about 29° C. during the day and about 26° C. during the night. Nutrients were added as Osmocote® (17:6:10, N:P:K+minor nutrients) at 2 grams (g) per 16-oz. pot and 4 g per 32-oz. pot. Water was added on a regular basis to maintain the paddy flood, and supplemental lighting was provided with overhead metal halide 1000-Watt lamps as necessary. The plants were employed for testing when they reached the first through fourth true leaf stage. Treatments of penoxsulam and benzobicyclon consisted of penoxsulam and benzobicyclon, applied alone or in combination. Treatments of clomazone and benzobicyclon consisted of clomazone and benzobicyclon, applied alone or in combination. Penoxsulam was formulated as Grasp® SC, clomazone was formulated as Command® 3ME, and benzobicyclon was formulated as 3.5% flowable or as technical grade material. Treatment requirements for each compound or herbicidal component were calculated based upon the rates being tested, the concentration of active ingredient or acid equivalent in the formulation, an application volume of 2 mL per component per pot, and an application area of 86.59 cm^2 per pot. For formulated compounds, a measured amount was placed in an individual 100 or 200 mL glass vial and was dissolved in a volume of 1.25% volume per volume (v/v) Agri-Dex® crop oil concentrate to obtain application solutions. […] The results measured at 22 days following application of the compositions are provided in Table 1 (Penoxsulam and Benzobicyclon) and Table 2 (Clomazone and Benzobicyclon).

[3] = Benzobicyclon 100 g ai/ha alone

CC1(C)CON(Cc2ccccc2Cl)C1=O [Clomazone, 2-[(2-chlorophenyl)methyl]-4,4-dimethyl-3-isoxazolidinone]
% Visual Weed Control 22DAA CYPRO Observed ([1]; Clomazone 112 g ai/ha alone): 0%

COc1cnc(OC)n2nc(NS(=O)(=O)c3c(OCC(F)F)cccc3C(F)(F)F)nc12 [Penoxsulam]
% Visual Weed Control 22DAA ECHOR Observed ([2]; Penoxsulam 10 g ai/ha alone): 85%

CS(=O)(=O)c1ccc(C(=O)C2=C(Sc3ccccc3)C3CCC(C3)C2=O)c(Cl)c1 (stereo not shown) [Benzobicyclon, 3-(2-chloro-4-mesylbenzoyl)-2-phenylthiobicyclo[3.2.1]oct-2-en-4-one]
% Visual Weed Control 22DAA ECHOR Observed ([2]; Benzobicyclon 25 g ai/ha alone): 0%
% Visual Weed Control 22DAA ECHOR Observed ([2]; Benzobicyclon 50 g ai/ha alone): 10%
% Visual Weed Control 22DAA ECHOR Observed [2, 3]: 15%
% Visual Weed Control 22DAA CYPRO Observed ([1]; Benzobicyclon 50 g ai/ha alone): 10%
% Visual Weed Control 22DAA CYPRO Observed [1, 3]: 30%
